From the NIST ThermoML archive (doi:10.1021/acs.jced.6b00327)
± gives the expanded uncertainty stated by the source.

Assay: xn = mol fraction of the nth substance listed
Conditions: Liquid, Buoyancy - hydrostatic balance with magnetic suspension - one sinker

Structure (SMILES): F/C=C/C(F)(F)F [trans-1,3,3,3-tetrafluoropropene] + CCC
- mass density (253.14 K, x1 = 0.4965): 913.53 ± 4.4 kg/m3
- mass density (253.3 K, x1 = 0.1746): 680.21 ± 4.3 kg/m3
- mass density (253.44 K, x1 = 0.8803): 1197.23 ± 4.3 kg/m3
- mass density (253.45 K, x1 = 0.7006): 1067.62 ± 4.5 kg/m3
- mass density (256.11 K, x1 = 0.1746): 676.35 ± 4.3 kg/m3
- mass density (258.14 K, x1 = 0.7006): 1056.03 ± 4.4 kg/m3
- mass density (258.17 K, x1 = 0.4965): 903.57 ± 4.4 kg/m3
- mass density (258.2 K, x1 = 0.8803): 1186.23 ± 4.4 kg/m3
- mass density (261.14 K, x1 = 0.1746): 670.01 ± 4.2 kg/m3
- mass density (263.15 K, x1 = 0.7006): 1043.42 ± 4.4 kg/m3
- mass density (263.16 K, x1 = 0.4965): 892.67 ± 4.3 kg/m3
- mass density (263.17 K, x1 = 0.8803): 1175.37 ± 4.4 kg/m3
- mass density (265.18 K, x1 = 0.1746): 662.22 ± 4.2 kg/m3
- mass density (268.17 K, x1 = 0.7006): 1030.6 ± 4.4 kg/m3
- mass density (268.19 K, x1 = 0.4965): 884.02 ± 4.2 kg/m3
- mass density (268.2 K, x1 = 0.8803): 1162.41 ± 4.4 kg/m3
- mass density (269.18 K, x1 = 0.1746): 655.74 ± 4.2 kg/m3
- mass density (273.18 K, x1 = 0.7006): 1017.6 ± 4.3 kg/m3
- mass density (273.18 K, x1 = 0.8803): 1149.12 ± 4.4 kg/m3
- mass density (273.2 K, x1 = 0.1746): 648.23 ± 4.2 kg/m3
- mass density (273.2 K, x1 = 0.4965): 873.27 ± 4.2 kg/m3
- mass density (278.19 K, x1 = 0.8803): 1135.29 ± 4.4 kg/m3
- mass density (278.2 K, x1 = 0.1746): 640.01 ± 4.2 kg/m3
- mass density (278.2 K, x1 = 0.7006): 1004.24 ± 4.3 kg/m3
- mass density (278.24 K, x1 = 0.4965): 862 ± 4.2 kg/m3
- mass density (283.18 K, x1 = 0.1746): 630.77 ± 4.1 kg/m3
- mass density (283.19 K, x1 = 0.4965): 851.76 ± 4.1 kg/m3
- mass density (283.19 K, x1 = 0.8803): 1121.17 ± 4.3 kg/m3
- mass density (283.2 K, x1 = 0.7006): 991.21 ± 4.2 kg/m3
- mass density (288.21 K, x1 = 0.8803): 1106.57 ± 4.3 kg/m3
- mass density (288.22 K, x1 = 0.7006): 977.85 ± 4.1 kg/m3
- mass density (288.25 K, x1 = 0.4965): 842.07 ± 4 kg/m3
- mass density (293.28 K, x1 = 0.4965): 831.58 ± 3.9 kg/m3
- mass density (293.28 K, x1 = 0.7006): 963.78 ± 4.1 kg/m3
- mass density (293.28 K, x1 = 0.8803): 1091.31 ± 4.3 kg/m3
